Values quoted from earlier work in patent publication US8367683B2, “Composition and method for treatment of warts” (Medcara, L.L.C., priority 2005, dated 2013).

Test system: warts
Conditions: even with patient compliance; applied several times a day over weeks to months

O=C(O)c1ccccc1O [salicylic acid]
share of users who experience success: less than half
